Source: patent publication US20150225404A1, “PYRIDINE DERIVATIVE AND MEDICINE” (NIPPON SHINYAKU CO., LTD., priority 2012, published 2015)
Structures can show the parent of a compound that is named as a salt.

Columns and labels:
male Slc:ICR mice [1] = assay: Action against formalin-induced pain behavior in mice; assay type: in vivo; settings: Mus musculus, iv, 0.1 h, 6 minutes observation, read-out: Percent inhibition of pain-related behavior time (%); for inhibition in vivo at 1 mg/kg: test substance 1 mg/kg intravenously; for inhibition in vivo at 3 mg/kg: test substance 3 mg/kg intravenously
Protocol: 4 to 6-week-old male Slc:ICR mice (available from Japan SLC, Inc.) were used. A medium or a test substance (1 mg/kg or 3 mg/kg) was intravenously administered to each mouse, and immediately thereafter, 20 μL of 1% or 5% formalin was subcutaneously administered to a right hind paw of the mouse. Thereafter, the mice were quickly put into an observation cage and measured for the total time (sec) of pain-related behavior (licking or biting behavior against the right hindlimb) during 6 minutes, and an average value of the pain-related behavior time of each group was calculated.
The intensity of an analgesic action of the test substance was evaluated in terms of percent inhibition (%) of pain-related behavior time which is calculated as {(A−B)/A×100}, wherein A is an average value of the pain-related behavior time of a medium-administered group, and B is an average value of the pain-related behavior time of a test substance-administered group.

human mGluR5 = molecular target: T1, human mGluR5 (Homo sapiens, UniProt P41594); assay: Experiment for receptor function of mGluR5 (Ca2+-dependent fluorescence, FLIPR, CHO-K1 cells stably expressing human mGluR5); assay type: cell-based; settings: L-glutamic acid 10 μM, Fluo-4 fluorescence
T1 construct: expressed in transfected cells
Method in brief: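 Fluo-4-loaded CHO-K1 cells pre-incubated 2 min with test substance, then stimulated with L-glutamic acid (final 10 μM) in HBSS, pH 7.4. FLIPR Ca2+ fluorescence normalized to glutamate alone (100%) and glutamate with 10 μM MPEP (0%); IC50 estimated by logistic fit.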

male Slc:ICR mice [2] = assay: Action against pain-related behavior and micturition cycle in mice with cyclophosphamide (CP)-induced acute cystitis; assay type: in vivo; settings: Mus musculus, iv, 0.25 h, CP 300 mg/kg i.p., 15 minutes observation; for inhibition in vivo at 1 mg/kg: test substance 1 mg/kg intravenously 3 hours after CP; for inhibition in vivo at 3 mg/kg: test substance 3 mg/kg intravenously 3 hours after CP
Protocol: An action of a test substance against visceral pain and frequent urination associated with cystitis, which was induced by intraperitoneal administration (20 mL/kg) of CP (300 mg/kg) to 4 to 5-week-old male Slc:ICR mice (available from Japan SLC, Inc.), was investigated. This experiment was performed according to a method described in European Journal of Pharmacology, 676 (2012), pp. 75-80.
Three hours after the administration of CP, a test substance (1 mg/kg or 3 mg/kg) was intravenously administered, and observation by visual inspection and video recording were performed for 15 minutes immediately thereafter. In the observation by visual inspection, four pain-related behaviors (eye opening, rounded back, leg dragging, and behavior during urination) were scored, each rated on a scale of 0-10, according to the following criteria.
Eye opening (normal: 0 point, sometimes closed or half-open eyes: 5 points, completely closed: 10 points)
Rounded back (normal: 0 point, sometimes crouched: 5 points, crouched at almost all times: 10 points)
Leg dragging (normal: 0 point, leg dragging: 10 points)
Behavior during urination (normal: 0 point, shaking hip in micturition: 10 points)
In addition, the video was played back, and the frequency of licking behavior around the abdomen as a pain-related behavior was scored, rated on a scale of 0-10, according to the following criteria.
Licking behavior around the abdomen (0 to 3 times: 0 point, 4 times to 10 times: 5 points, 11 times or more: 10 points)
Furthermore, the video was played back, and the frequency of urination (urination marks) on a filter paper was counted and taken as an index for micturition cycle.
An average value of the pain-related behavior score of each group (total score of the five items: 50 points at maximum) and an average value of the frequency of urination (urination marks) on the filter paper were determined.
The strength of an analgesic action of the test substance against the CP-induced visceral pain was evaluated in terms of percent inhibition (%) of pain-related behavior score which is calculated as {(A−B)/A×100}, wherein A is an average value of the pain-related behavior score of a medium-administered group, and B is an average value of the pain-related behavior score of a test substance-administered group.
In addition, the strength of a frequent urination inhibitory action of the test substance against the CP-induced frequent urination was evaluated in terms of percent inhibition (%) of the frequency of urination which is calculated as {(C−D)/C×100}, wherein C is an average value of the frequency of urination of a medium-administered group, and D is an average value of the frequency of urination of a test substance-administered group.

[3] = read-out: Percent inhibition of pain-related behavior score (%)
[4] = read-out: Percent inhibition of the frequency of urination (%)

T1 sequence (P41594 21-1212): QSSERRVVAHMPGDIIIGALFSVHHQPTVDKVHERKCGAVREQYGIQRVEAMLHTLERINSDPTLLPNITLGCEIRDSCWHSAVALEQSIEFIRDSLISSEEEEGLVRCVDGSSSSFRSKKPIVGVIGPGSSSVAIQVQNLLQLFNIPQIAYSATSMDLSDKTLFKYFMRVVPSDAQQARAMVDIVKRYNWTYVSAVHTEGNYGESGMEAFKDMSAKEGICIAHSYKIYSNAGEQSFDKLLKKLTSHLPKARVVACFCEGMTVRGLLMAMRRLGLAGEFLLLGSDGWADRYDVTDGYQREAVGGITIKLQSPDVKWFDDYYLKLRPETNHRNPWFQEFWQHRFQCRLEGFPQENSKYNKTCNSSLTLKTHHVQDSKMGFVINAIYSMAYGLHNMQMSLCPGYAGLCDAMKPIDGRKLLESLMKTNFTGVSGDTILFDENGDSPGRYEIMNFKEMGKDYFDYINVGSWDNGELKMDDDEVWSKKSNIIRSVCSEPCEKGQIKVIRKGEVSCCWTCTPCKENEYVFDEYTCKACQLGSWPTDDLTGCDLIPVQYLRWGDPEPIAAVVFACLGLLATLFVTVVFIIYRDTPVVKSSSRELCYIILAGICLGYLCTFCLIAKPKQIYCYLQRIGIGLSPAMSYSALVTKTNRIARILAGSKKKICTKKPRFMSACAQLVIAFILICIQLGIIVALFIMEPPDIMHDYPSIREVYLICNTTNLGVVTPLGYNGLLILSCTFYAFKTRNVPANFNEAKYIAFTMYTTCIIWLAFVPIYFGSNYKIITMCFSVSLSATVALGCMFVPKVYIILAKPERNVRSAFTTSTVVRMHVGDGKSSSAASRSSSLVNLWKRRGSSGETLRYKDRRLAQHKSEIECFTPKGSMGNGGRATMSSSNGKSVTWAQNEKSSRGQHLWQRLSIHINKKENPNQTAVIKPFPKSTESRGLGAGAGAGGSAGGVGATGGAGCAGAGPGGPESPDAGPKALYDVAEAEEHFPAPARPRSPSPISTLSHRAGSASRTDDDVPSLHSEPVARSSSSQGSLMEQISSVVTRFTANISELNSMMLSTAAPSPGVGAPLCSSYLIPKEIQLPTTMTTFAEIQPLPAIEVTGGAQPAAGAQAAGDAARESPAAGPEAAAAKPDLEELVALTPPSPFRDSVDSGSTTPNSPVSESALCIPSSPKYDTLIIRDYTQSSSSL

Row | Compound | inhibition in vivo at 1 mg/kg (male Slc:ICR mice [1]; 5% formalin) | IC50 (human mGluR5) | also measured
1 | Fc1cccc(COc2cc(-c3cncnc3)c3c(n2)CCC3)c1 [Example 15, 2-[(3-Fluorobenzyl)oxy]-4-(pyrimidin-5-yl)-6,7-dihydro-5H-cyclopenta[b]pyridine] | 64% | – | –
2 | c1ccc(COc2cc(-c3cncnc3)c3c(n2)CCC3)nc1 [Example 12, 2-(Pyridin-2-ylmethoxy)-4-(pyrimidin-5-yl)-6,7-dihydro-5H-cyclopenta[b]pyridine hydrochloride] | – | – | inhibition in vivo at 1 mg/kg (male Slc:ICR mice [1]; 1% formalin): 66.8%
3 | Fc1ccc(COc2cc(-c3cncnc3)c3c(n2)CCC3)cc1 [Example 257, 2-[(4-Fluorobenzyl)oxy]-4-(pyrimidin-5-yl)-6,7-dihydro-5H-cyclopenta[b]pyridine] | 51.1% | 63.5 nM | –
4 | N#Cc1ccc(-c2cc(OCc3ncc(F)cc3F)nc3c2CCC3)cn1 [Example 246, 5-{2-[(3,5-Difluoropyridin-2-yl)methoxy]-6,7-dihydro-5H-cyclopenta[b]pyridin-4-yl}pyridine-2-carbonitrile] | 22.8% | 42 nM | –
5 | OCc1cncc(-c2cc(OCc3ccccn3)nc3c2CCC3)n1 [Example 268, {6-[2-(Pyridin-2-ylmethoxy)-6,7-dihydro-5H-cyclopenta[b]pyridin-4-yl]pyrazin-2-yl}methanol hydrochloride] | 53.9% | – | –
6 | c1ncc(-c2cc(OCc3ncco3)nc3c2CCCC3)cn1 [Example 165, 2-(1,3-Oxazol-2-ylmethoxy)-4-(pyrimidin-5-yl)-5,6,7,8-tetrahydroquinoline] | – | 37.9 nM | inhibition in vivo at 1 mg/kg (male Slc:ICR mice [1]; 1% formalin): 52.3%
7 | [O-][n+]1cncc(-c2cc(OCc3ccccn3)nc3c2CCCC3)c1 [Example 231, 4-(1-Oxidopyrimidin-5-yl)-2-(pyridin-2-ylmethoxy)-5,6,7,8-tetrahydroquinoline] | 66.1% | 304 nM | –
8 | c1ncc(-c2cc(OCc3nccs3)nc3c2CCCC3)cn1 [Example 164, 4-(Pyrimidin-5-yl)-2-(1,3-thiazol-2-ylmethoxy)-5,6,7,8-tetrahydroquinoline] | – | 27.9 nM | inhibition in vivo at 1 mg/kg (male Slc:ICR mice [1]; 1% formalin): 42.2%
9 | Fc1cccnc1COc1cc(-c2cccnn2)c2c(n1)CCC2 [Example 272, 2-[(3-Fluoropyridin-2-yl)methoxy]-4-(pyridazin-3-yl)-6,7-dihydro-5H-cyclopenta[b]pyridine] | 40.5% | 117 nM | –
10 | N#Cc1cccc(COc2cc(-c3cncnc3)c3c(n2)CCC3)c1 [Example 23, 3-({[4-(Pyrimidin-5-yl)-6,7-dihydro-5H-cyclopenta[b]pyridin-2-yl]oxy}methyl)benzonitrile] | 47.9% | 39 nM | –
11 | Cc1ncc(-c2cc(OCc3cccc(C#N)n3)nc3c2CCCC3)cn1 [Example 183, 6-({[4-(2-Methylpyrimidin-5-yl)-5,6,7,8-tetrahydroquinolin-2-yl]oxy}methyl)pyridine-2-carbonitrile] | – | 148 nM | inhibition in vivo at 1 mg/kg (male Slc:ICR mice [2]; [3]): 37%; inhibition in vivo at 1 mg/kg (male Slc:ICR mice [2]; [4]): 22.7%
12 | c1cnc(COc2cc(-c3cncnc3)c3c(n2)CCCC3)cn1 [Example 163, 2-(Pyrazin-2-ylmethoxy)-4-(pyrimidin-5-yl)-5,6,7,8-tetrahydroquinoline] | – | – | inhibition in vivo at 3 mg/kg (male Slc:ICR mice [1]; 5% formalin): 37.2%
13 | Cc1cccc(COc2cc(-c3cnc(C)nc3)c3c(n2)CCCC3)n1 [Example 182, 2-[(6-Methylpyridin-2-yl)methoxy]-4-(2-methylpyrimidin-5-yl)-5,6,7,8-tetrahydroquinoline hydrochloride] | – | 123 nM | inhibition in vivo at 3 mg/kg (male Slc:ICR mice [2]; [3]): 26%; inhibition in vivo at 3 mg/kg (male Slc:ICR mice [2]; [4]): 43.2%
14 | c1cnc(COc2cc(-c3cccnc3)c3c(n2)CCCC3)nc1 [Example 90, 4-(Pyridin-3-yl)-2-(pyrimidin-2-ylmethoxy)-5,6,7,8-tetrahydroquinoline] | 54.3% | 152 nM | –
15 | CC1CCc2c(-c3cncnc3)cc(OCc3ccccn3)nc21 (stereo not shown) [Example 238, 7-Methyl-2-(pyridin-2-ylmethoxy)-4-(pyrimidin-5-yl)-6,7-dihydro-5H-cyclopenta[b]pyridine] | 77.9% | 23 nM | –
16 | COCc1ncc(-c2cc(OCc3ccccn3)nc3c2CCCC3)s1 [Example 227, 4-[2-(Methoxymethyl)-1,3-thiazol-5-yl]-2-(pyridin-2-ylmethoxy)-5,6,7,8-tetrahydroquinoline] | – | 36.2 nM | inhibition in vivo at 1 mg/kg (male Slc:ICR mice [1]; 1% formalin): 25.6%
17 | c1ccc(COc2cc(-c3cccnc3)c3c(n2)CCCC3)nc1 [Example 82, 4-(Pyridin-3-yl)-2-(pyridin-2-ylmethoxy)-5,6,7,8-tetrahydroquinoline] | – | 153 nM | inhibition in vivo at 3 mg/kg (male Slc:ICR mice [1]; 1% formalin): 59.8%
18 | Fc1cccnc1COc1cc(-c2cncnc2)c2c(n1)CCCC2 [Example 147, 2-[(3-Fluoropyridin-2-yl)methoxy]-4-(pyrimidin-5-yl)-5,6,7,8-tetrahydroquinoline] | – | 19.7 nM | inhibition in vivo at 3 mg/kg (male Slc:ICR mice [2]; [3]): 38.8%; inhibition in vivo at 3 mg/kg (male Slc:ICR mice [2]; [4]): 21.1%
19 | Nc1ncc(-c2cc(OCc3ncccc3F)nc3c2CCCC3)cn1 [Example 191, 5-{2-[(3-Fluoropyridin-2-yl)methoxy]-5,6,7,8-tetrahydroquinolin-4-yl}pyrimidin-2-amine hydrochloride] | – | 36 nM | inhibition in vivo at 3 mg/kg (male Slc:ICR mice [2]; [3]): 20.5%; inhibition in vivo at 3 mg/kg (male Slc:ICR mice [2]; [4]): 36.5%
20 | Cc1ncc(-c2cc(OCc3ccc(F)cc3)nc3c2CCC3)cn1 [Example 260, 2-[(4-Fluorobenzyl)oxy]-4-(2-methylpyrimidin-5-yl)-6,7-dihydro-5H-cyclopenta[b]pyridine] | 42.9% | 79 nM | –
21 | Cc1ncc(-c2cc(OCc3cccc(C#N)n3)nc3c2CCC3)cn1 [Example 46, 6-({[4-(2-Methylpyrimidin-5-yl)-6,7-dihydro-5H-cyclopenta[b]pyridin-2-yl]oxy}methyl)pyridine-2-carbonitrile] | – | 207 nM | inhibition in vivo at 1 mg/kg (male Slc:ICR mice [2]; [3]): 22%; inhibition in vivo at 1 mg/kg (male Slc:ICR mice [2]; [4]): 31.5%
22 | N#Cc1ncccc1-c1cc(OCc2ccccn2)nc2c1CCC2 [Example 3, 3-[2-(Pyridin-2-ylmethoxy)-6,7-dihydro-5H-cyclopenta[b]pyridin-4-yl]pyridine-2-carbonitrile] | – | 12 nM | inhibition in vivo at 1 mg/kg (male Slc:ICR mice [1]; 1% formalin): 25.1%
23 | Nc1ncc(-c2cc(OCc3cccc(F)n3)nc3c2CCCC3)cn1 [Example 283, 5-{2-[(6-Fluoropyridin-2-yl)methoxy]-5,6,7,8-tetrahydroquinolin-4-yl}pyrimidin-2-amine hydrochloride] | 38.8% | – | –
